Here are results for 13 molecules from paper PMC11983343, “Synthesis of Thiazole-methylsulfonyl Derivatives, X-ray Study, and Investigation of Their Carbonic Anhydrase Activities: In Vitro and In Silico Potentials” (ACS Omega, 2025).

The term IC50 denotes the point on the concentration scale where inhibition reaches its midpoint.

One experiment deals with T1, hCA II (Homo sapiens, UniProt P00918).
T1 construct: hCA I and hCA II isoenzymes purified from human erythrocytes under in vitro conditions; from tissue; host or cells: human erythrocytes
Kind of experiment: Carbonic anhydrase II inhibition assay (esterase method, p-nitrophenyl acetate, 348 nm). Format: biochemical. Particulars: hCA II purified from human erythrocytes. The text has this:
(§1) The esterase method was used to investigate the effects of the molecule on hCA isoenzymes.[44] This method is based on the activity of hCA for the hydrolysis of p-nitrophenyl acetate as a substrate for the reaction mechanism of p-nitrophenol or p-nitrophenolate. […] Since p-nitrophenyl acetate has very little absorption at this wavelength, it will be used as a blank. The p-nitrophenyl acetate substrate solution used in the experiments will be prepared daily.[45],[46]
(§2) Then, the cuvette content containing enzymes, unlike the blank cuvette, was prepared according to Table 1 and placed in the spectrophotometer device. […] Then, molecules at different concentrations were added one by one, the absorbances at 0 and 3 min were measured again, and their differences were taken.[45],[46] […] The enzyme activity values obtained were converted to % activity, their graphs were drawn according to the different concentrations of the molecules, and the IC50 value, that is, the concentration of molecules that reduced the enzyme activity by half, was found. The values were interpreted.
(§3) For the inhibition study, five different inhibitor concentrations of molecules were used at a fixed substrate concentration, and the inhibitor concentration (IC50) values that reduced the enzyme’s activity by half were determined by drawing % activity–[I] graphs.

In a further experiment the target is T2, hCA I (Homo sapiens, UniProt P00915).
T2 construct: hCA I and hCA II isoenzymes purified from human erythrocytes under in vitro conditions; from tissue; host or cells: human erythrocytes
The experiment is described as follows: Carbonic anhydrase I inhibition assay (esterase method, p-nitrophenyl acetate, 348 nm). Format: biochemical. The note with it: hCA I purified from human erythrocytes.
Text: as §1, §2, §3

T2 sequence (P00915 whole entry): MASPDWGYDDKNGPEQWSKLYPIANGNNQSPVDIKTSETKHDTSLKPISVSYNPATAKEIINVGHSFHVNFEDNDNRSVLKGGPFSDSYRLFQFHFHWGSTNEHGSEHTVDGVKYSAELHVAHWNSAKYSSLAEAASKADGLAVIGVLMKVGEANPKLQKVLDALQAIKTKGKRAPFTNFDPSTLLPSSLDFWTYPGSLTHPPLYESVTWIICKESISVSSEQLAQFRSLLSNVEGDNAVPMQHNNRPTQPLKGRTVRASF

With `CC(=NNc1nc(-c2ccc([N+](=O)[O-])cc2)cs1)c1ccc(S(C)(=O)=O)cc1` [2a, 2-(2-(1-(4-(Methylsulfonyl)phenyl)ethylidene)hydrazinyl)-4-(4-nitrophenyl)thiazole], the IC50 against hCA II came to 70 µM; against hCA I, 39.4 µM.

With `COc1ccc(-c2csc(NN=C(C)c3ccc(S(C)(=O)=O)cc3)n2)cc1` [2b, 2-(2-(1-(4-(Methylsulfonyl)phenyl)ethylidene)hydrazinyl)-4-(4-methoxyphenyl)thiazole], the 50% inhibitory concentration (IC50) against hCA II was 76.2 µM; on hCA I, 59.8 µM.

Turning to `CC(=NNc1nc(-c2ccc(C#N)cc2)cs1)c1ccc(S(C)(=O)=O)cc1` [2c, 2-(2-(1-(4-(Methylsulfonyl)phenyl)ethylidene)hydrazinyl)-4-(4-cyanophenyl)thiazole], the IC50 against hCA II turned out to be 39.2 µM; against hCA I, 63 µM.

Turning to `CC(=NNc1nc(-c2ccc(F)cc2)cs1)c1ccc(S(C)(=O)=O)cc1` [2d, 2-(2-(1-(4-(Methylsulfonyl)phenyl)ethylidene)hydrazinyl)-4-(4-fluorophenyl)thiazole], the IC50 at hCA II worked out at 54.1 µM; against hCA I, 103 µM.

On to `CC(=NNc1nc(-c2ccc(-c3ccccc3)cc2)cs1)c1ccc(S(C)(=O)=O)cc1` [2e, 4-([1,1′-Biphenyl]-4-yl)-2-(2-(1-(4-(methylsulfonyl)phenyl)ethylidene)hydrazinyl)thiazole], for which the IC50 at hCA II was 40.5 µM; against hCA I it was 77.9 µM.

As to `CC(=NNc1nc(-c2ccc(Br)cc2)cs1)c1ccc(S(C)(=O)=O)cc1` [2f, 2-(2-(1-(4-(Methylsulfonyl)phenyl)ethylidene)hydrazinyl)-4-(4-bromophenyl)thiazole], the values for the IC50 against hCA II and on hCA I were 51.3 µM and 133 µM, respectively.

Turning to `CC(=NNc1nc(-c2ccc(C)cc2)cs1)c1ccc(S(C)(=O)=O)cc1` [2g, 2-(2-(1-(4-(Methylsulfonyl)phenyl)ethylidene)hydrazinyl)-4-(4-methylphenyl)thiazole], the IC50 against hCA II amounted to 78.8 µM; against hCA I it was 198 µM.

On to `CC(=NNc1nc(-c2ccc(Cl)c(Cl)c2)cs1)c1ccc(S(C)(=O)=O)cc1` [2h, 2-(2-(1-(4-(Methylsulfonyl)phenyl)ethylidene)hydrazinyl)-4-(3,4-dichlorophenyl)thiazole], for which the IC50 against hCA II stood at 38.5 µM; on hCA I it was 60.8 µM.

On to `CC(=NNc1nc(-c2ccc(F)cc2F)cs1)c1ccc(S(C)(=O)=O)cc1` [2i, 2-(2-(1-(4-(Methylsulfonyl)phenyl)ethylidene)hydrazinyl)-4-(2,4-difluorophenyl)thiazole], for which the IC50 at hCA II was found to be 86.6 µM; at hCA I it was 52.9 µM.

For the molecule `CC(=NNc1nc(-c2cccc([N+](=O)[O-])c2)cs1)c1ccc(S(C)(=O)=O)cc1` [2j, 2-(2-(1-(4-(Methylsulfonyl)phenyl)ethylidene)hydrazinyl)-4-(3-nitrophenyl)thiazole], the IC50 is 64.8 µM on hCA II and 80.6 µM on hCA I.

For `CC(=NNc1nc(-c2ccc(Cl)cc2)cs1)c1ccc(S(C)(=O)=O)cc1` [2k, 2-(2-(1-(4-(Methylsulfonyl)phenyl)ethylidene)hydrazinyl)-4-(4-chlorophenyl) thiazole], the IC50 against hCA II amounted to 86.6 µM; at hCA I it was 58.7 µM.

On to `CC(=NNc1nc(-c2ccc(Cl)cc2Cl)cs1)c1ccc(S(C)(=O)=O)cc1` [2l, 2-(2-(1-(4-(Methylsulfonyl)phenyl)ethylidene)hydrazinyl)-4-(2,4-dichlorophenyl)thiazole], for which the IC50 at hCA II came to 71.5 µM; on hCA I, 67.9 µM.

As for `CC(=NNc1nc(-c2ccccc2)cs1)c1ccc(S(C)(=O)=O)cc1` [2m, 2-(2-(1-(4-(Methylsulfonyl)phenyl)ethylidene)hydrazinyl)-4-phenylthiazole], the values for the IC50 against hCA II and at hCA I were 53.3 µM and 44.4 µM, respectively.
